Common to all, as to assay: relative viability (nuclei count vs DMSO), 5 days (fraction); higher = more cells survive
Compound in the experiment “Veliparib + Lapatinib”: C[C@]1(c2nc3c(C(N)=O)cccc3[nH]2)CCCN1 [Veliparib] + CS(=O)(=O)CCNCc1ccc(-c2ccc3ncnc(Nc4ccc(OCc5cccc(F)c5)c(Cl)c4)c3c2)o1 [Lapatinib] (partner 2 µM)
Put shortly:
(§1)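 Each reported value is a median over duplicate plates. It expresses relative viability: treated-well nuclei count divided by vehicle-well nuclei count. Lung cancer cell lines in 1536-well plates were dosed by pin tool a day after seeding, alone with one drug or with a fixed anchor-drug dose plus five library-drug doses (not always all listed) in √10 steps, and nuclei were counted after 5 days.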

Compound in experiment [1]: COC1=CC=C(C=C1)CN2C=CC3=C2C=C(C=C3)C(=O)NO + C[C@]1(O)C[C@@H](c2nc(-c3ccc4ccc(-c5ccccc5)nc4c3)c3c(N)nccn32)C1 [Linsitinib] (partner 1 µM)
In a few lines: as §1

Compound in experiment [2]: COC1=CC=C(C=C1)CN2C=CC3=C2C=C(C=C3)C(=O)NO + Cc1nc(Nc2ncc(C(=O)Nc3c(C)cccc3Cl)s2)cc(N2CCN(CCO)CC2)n1 [Dasatinib] (partner 0.075 µM)
In a few lines: as §1

Compound in experiment [3]: COC1=CC=C(C=C1)CN2C=CC3=C2C=C(C=C3)C(=O)NO + Nc1nc2[nH]cc(CCc3ccc(C(=O)N[C@@H](CCC(=O)O)C(=O)O)cc3)c2c(=O)[nH]1 [Pemetrexed] (partner 0.2 µM)
In a few lines:
as §1

In the case of NCI-H2023, the relative viability in the experiment with Veliparib + Lapatinib (first compound 0.02 µM) was 0.428; with Veliparib + Lapatinib (first compound 0.06325 µM), 0.759; in the experiment with Veliparib + Lapatinib (first compound 0.2 µM), 0.743; in the experiment with Veliparib + Lapatinib (first compound 0.6325 µM), 0.745; with Veliparib + Lapatinib (first compound 2 µM) it was 0.862; in experiment [1] (first compound 0.08 µM), 0.576. In addition, the relative viability in experiment [1] (first compound 0.253 µM) stood at 0.645; in experiment [1] (first compound 0.8 µM), 0.64; in experiment [1] (first compound 2.53 µM), 0.7; in experiment [1] (first compound 8 µM), 0.637; in experiment [2] (first compound 0.08 µM), 0.553; in experiment [2] (first compound 0.253 µM), 0.596. Moreover, the relative viability in experiment [2] (first compound 0.8 µM) was determined as 0.592; in experiment [2] (first compound 2.53 µM) it was 0.577; in experiment [2] (first compound 8 µM), 0.439; in experiment [3] (first compound 0.08 µM), 0.23; in experiment [3] (first compound 0.253 µM), 0.199; in experiment [3] (first compound 0.8 µM), 0.207. In addition, the relative viability in experiment [3] (first compound 2.53 µM) worked out at 0.208; in experiment [3] (first compound 8 µM) it was 0.209.

As to NCI-H2126, the relative viability is 0.797 in the experiment with Veliparib + Lapatinib (first compound 0.02 µM); 0.687 with Veliparib + Lapatinib (first compound 0.06325 µM); 0.726 with Veliparib + Lapatinib (first compound 0.2 µM); 0.775 in the experiment with Veliparib + Lapatinib (first compound 0.6325 µM); 0.729 with Veliparib + Lapatinib (first compound 2 µM); 0.735 in experiment [1] (first compound 0.08 µM). For the same cell line, the relative viability is 0.754 in experiment [1] (first compound 0.253 µM); 0.686 in experiment [1] (first compound 0.8 µM); 0.737 in experiment [1] (first compound 2.53 µM); 0.727 in experiment [1] (first compound 8 µM); 0.591 in experiment [2] (first compound 0.08 µM); 0.673 in experiment [2] (first compound 0.253 µM). Further, the relative viability was found to be 0.655 in experiment [2] (first compound 0.8 µM); 0.61 in experiment [2] (first compound 2.53 µM); 0.547 in experiment [2] (first compound 8 µM); 0.669 in experiment [3] (first compound 0.08 µM); 0.73 in experiment [3] (first compound 0.253 µM); 0.672 in experiment [3] (first compound 0.8 µM). For the same cell line, the relative viability is 0.706 in experiment [3] (first compound 2.53 µM) and 0.649 in experiment [3] (first compound 8 µM).

On to EMC-BAC-2, for which the relative viability with Veliparib + Lapatinib (first compound 0.02 µM) came to 0.863; with Veliparib + Lapatinib (first compound 0.06325 µM) it was 0.85; with Veliparib + Lapatinib (first compound 0.2 µM), 0.867; with Veliparib + Lapatinib (first compound 0.6325 µM) it was 0.86; with Veliparib + Lapatinib (first compound 2 µM), 0.884; in experiment [1] (first compound 0.08 µM) it was 0.686. For the same cell line, the relative viability in experiment [1] (first compound 0.253 µM) was found to be 0.867; in experiment [1] (first compound 0.8 µM), 0.839; in experiment [1] (first compound 2.53 µM), 0.814; in experiment [1] (first compound 8 µM), 0.839; in experiment [2] (first compound 0.08 µM), 0.324; in experiment [2] (first compound 0.253 µM), 0.333. Also, the relative viability in experiment [2] (first compound 0.8 µM) was 0.347; in experiment [2] (first compound 2.53 µM), 0.357; in experiment [2] (first compound 8 µM), 0.298; in experiment [3] (first compound 0.08 µM), 0.428; in experiment [3] (first compound 0.8 µM), 0.451; in experiment [3] (first compound 2.53 µM), 0.476. Further, in experiment [3] (first compound 8 µM), the relative viability came to 0.491.

Turning to NCI-H838, the relative viability worked out at 1.12 with Veliparib + Lapatinib (first compound 0.02 µM); 0.842 with Veliparib + Lapatinib (first compound 0.06325 µM); 0.902 in the experiment with Veliparib + Lapatinib (first compound 0.2 µM); 0.847 with Veliparib + Lapatinib (first compound 0.6325 µM); 0.979 with Veliparib + Lapatinib (first compound 2 µM); 1.13 in experiment [1] (first compound 0.253 µM). Besides, the relative viability was 1.13 in experiment [1] (first compound 0.8 µM); 1.08 in experiment [1] (first compound 2.53 µM); 0.961 in experiment [1] (first compound 8 µM); 0.265 in experiment [2] (first compound 0.253 µM); 0.31 in experiment [2] (first compound 0.8 µM); 0.297 in experiment [2] (first compound 2.53 µM). The relative viability was determined as 0.258 in experiment [2] (first compound 8 µM); 0.232 in experiment [3] (first compound 0.08 µM); 0.27 in experiment [3] (first compound 0.253 µM); 0.244 in experiment [3] (first compound 0.8 µM); 0.234 in experiment [3] (first compound 2.53 µM); 0.257 in experiment [3] (first compound 8 µM).

Source of the values: the supplement of paper PMC10307832.
